Test results published in a compilation of properties of binary mixtures (doi:10.1039/c6ra15476j).

Assay: xn = mol fraction of the nth substance listed
Conditions: 100 kPa

CCCC[n+]1ccn(C)c1.F[P-](F)(F)(F)(F)F + CC(=O)c1ccccc1
x2 = 0
Conditions	viscosity [mPa·s]
293.15 K	293
303.15 K	162
323.15 K	62
333.15 K	42.3

CCOS(=O)(=O)[O-].CC[n+]1ccn(C)c1 + CC(=O)c1ccccc1
x2 = 0
Conditions	speed of sound [m/s]	viscosity [mPa·s]
293.15 K	1695	98
303.15 K	1670	60
323.15 K	1623	27.9

CC[n+]1ccn(C)c1.F[B-](F)(F)F + CC(=O)c1ccccc1
x2 = 0
Conditions	speed of sound [m/s]	viscosity [mPa·s]
303.15 K	1618	28.2
313.15 K	1595	20
323.15 K	1572	14.9
333.15 K	1550	11.5

CC(=O)c1ccccc1 + CCCC[n+]1ccn(C)c1.F[P-](F)(F)(F)(F)F
viscosity [mPa·s]
Conditions	293.15 K	303.15 K	313.15 K	323.15 K	333.15 K
x1 = 0.0504	176	89	62	41	27.6
x1 = 0.0913	129	68	45.8	–	–
x1 = 0.1983	88	48.5	35	26.5	18.6
x1 = 0.2999	81	–	32.3	23.2	–
x1 = 0.3908	73	40.9	28.3	–	14.2
x1 = 0.4973	60	32.4	–	15.2	10.2
x1 = 0.5999	–	22.9	–	11.6	9.3
x1 = 0.697	35.6	18.5	12.3	–	8.3
x1 = 0.7999	28.2	14.3	8	–	4.67
x1 = 0.9002	16.2	7.7	5.6	4.34	–
x1 = 0.95	8.4	4.64	3.57	–	1.62
x1 = 1	1.91	1.65	1.37	1.17	–

CC(=O)c1ccccc1 + CCOS(=O)(=O)[O-].CC[n+]1ccn(C)c1
Conditions	speed of sound, 293.15 K [m/s]	speed of sound, 303.15 K [m/s]	speed of sound, 313.15 K [m/s]	speed of sound, 323.15 K [m/s]	speed of sound, 333.15 K [m/s]	viscosity, 293.15 K [mPa·s]	viscosity, 303.15 K [mPa·s]	viscosity, 313.15 K [mPa·s]	viscosity, 323.15 K [mPa·s]	viscosity, 333.15 K [mPa·s]
x1 = 0.0505	1691	1663	1637	1611	–	68	44	29	20.6	–
x1 = 0.0997	1684	1656	1628	1601	–	56	35	23.9	17.1	–
x1 = 0.2	1669	–	1610	1581	1521	40	–	18	13.1	11.9
x1 = 0.3008	1652	1621	1591	–	1503	30.2	21.3	14.5	–	9.6
x1 = 0.4002	1634	–	1571	1540	1485	22.6	–	11.9	9.3	8.3
x1 = 0.5006	1615	1583	1550	1518	–	14.9	11.8	9.8	8	6.8
x1 = 0.5999	1596	1562	1529	–	1448	10.1	8.4	7.2	–	4.9
x1 = 0.6921	1577	1542	–	1473	1428	6.9	6.6	–	3.4	3.6
x1 = 0.7973	–	–	1481	1446	1404	–	–	4.6	2.19	1.86
x1 = 0.8999	1526	1489	–	–	1379	3.7	2.88	–	–	1.66
x1 = 0.9502	1511	–	–	1402	1365	3.04	–	–	1.68	1.46
x1 = 1	1497	–	–	–	1352	1.91	–	–	–	1.02

CC(=O)c1ccccc1 + CC[n+]1ccn(C)c1.F[B-](F)(F)F
Conditions	speed of sound, 293.15 K [m/s]	speed of sound, 303.15 K [m/s]	speed of sound, 313.15 K [m/s]	speed of sound, 323.15 K [m/s]	speed of sound, 333.15 K [m/s]	viscosity, 293.15 K [mPa·s]	viscosity, 303.15 K [mPa·s]	viscosity, 313.15 K [mPa·s]	viscosity, 323.15 K [mPa·s]	viscosity, 333.15 K [mPa·s]
x1 = 0.0416	1640	1608	1581	1555	–	32.1	21.2	15.4	11.6	–
x1 = 0.094	1638	–	1572	–	–	25.5	–	12.3	–	–
x1 = 0.195	1628	1591	1560	1530	1502	21.7	14.3	10.9	8.1	7.2
x1 = 0.2999	–	1581	1550	1519	1490	–	12.9	9.5	7.3	5.8
x1 = 0.4003	–	1571	1538	–	–	–	11	8.1	–	–
x1 = 0.4989	1598	–	1527	–	1462	12.3	–	6	–	3.49
x1 = 0.5979	1583	1546	1511	1477	1442	8.7	6.5	5.2	4.14	3.39
x1 = 0.7005	1564	1528	1491	1457	1422	6.8	4.97	3.84	3.1	2.58
x1 = 0.8007	1543	1507	1472	1437	1400	4.74	3.61	3.09	2.36	2
x1 = 0.8918	1522	1485	–	1413	–	3.2	2.56	–	1.76	–
x1 = 0.9498	1509	1471	–	1398	–	2.45	2.03	–	1.42	–
x1 = 1	1497	1460	1423	1387	–	1.91	1.65	1.37	1.17	–
